Data published in US20240287046A1, “COMPOUNDS AND RADIOLIGANDS FOR TARGETING NEUROTENSIN RECEPTOR AND USES THEREOF” (Full-Life Technologies HK Limited, priority 2022, published 2024).
Read-outs that look alike come from different tables or passages of the source.

How the values were obtained:
human NTSR-1 = human NTSR-1 (Homo sapiens (Human), UniProt P30989); assay: radioligand competitive binding assay using ^177Lu labeled C-1 as reference radioligand; conditions: for IC50: Nonlin fit, single assay, HT-29 cells
How it was run: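 HT-29 cells expressing human NTSR-1 incubated with ¹⁷⁷Lu-C-1 (0.55 μCi/well) and test compound in RPMI-1640 + 0.25% BSA, 1 h at 37 °C (n=3). Unbound label removed by filtration, cell-bound radioactivity gamma-counted; IC50 from nonlinear regression of displacement.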

NTR1 = NTR1 (Homo sapiens (Human), UniProt P30989); conditions: cited from earlier work
Sequence of NTR1 (P30989 whole entry, species assumed): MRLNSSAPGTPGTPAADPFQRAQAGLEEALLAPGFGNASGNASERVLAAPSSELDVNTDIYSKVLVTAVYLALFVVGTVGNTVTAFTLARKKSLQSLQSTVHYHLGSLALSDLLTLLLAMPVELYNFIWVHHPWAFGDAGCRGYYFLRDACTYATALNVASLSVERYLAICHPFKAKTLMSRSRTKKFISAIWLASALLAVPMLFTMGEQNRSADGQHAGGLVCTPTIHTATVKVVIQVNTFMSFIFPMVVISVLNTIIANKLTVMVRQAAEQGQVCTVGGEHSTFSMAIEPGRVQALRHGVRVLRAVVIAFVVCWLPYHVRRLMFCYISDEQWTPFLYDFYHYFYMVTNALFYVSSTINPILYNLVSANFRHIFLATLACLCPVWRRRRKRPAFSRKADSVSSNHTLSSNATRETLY

Sequence of human NTSR-1 (P30989 whole entry): as the sequence (P30989 whole entry, species assumed) above

COc1cccc(OC)c1-c1cc(C(=O)NC2(C(=O)O)C3CC4CC(C3)CC2C4)nn1-c1ccc(C(=O)N(C)CCCN(C)C)cc1C(C)C (stereo not shown) [Compound C-3, reference compound]
Relative Binding Affinity (human NTSR-1; Mean IC50 of C-1/Mean IC50 of the test compound): 13.7
IC50 (human NTSR-1; read-out: IC50 (nM) Mean): 2.05 nM
IC50 (human NTSR-1; read-out: LogIC50 Mean (converted)): 2.05 nM
binding affinity to NTR1 as an antagonist (NTR1): high binding affinity
